Results: patent US20080032418A1, “Cell Free Assay Systems For Identifying A Substance Of Interest” (priority 2003, published 2008)

Experiments:
[1] = system: any of the receptor molecules described in example 1; conditions: 1.1 μM receptor, 2.5 μM compound 1, overnight at 4° C., Superose 6 gel filtration, excitation 485 nm, emission 535 nm
Procedure: This example describes the chelation of the compound of example 4 to any of the receptor molecules described in example 1 and purification of the receptor-perylene complexes by gel filtration chromatography.
The receptor was affinity purified, following standard methods, and 1.1 μM of the molecule was combined with 2.5 μM of compound 1, in a total volume of 0.5 ml. The materials were incubated on a rocking platform, overnight, at 4° C. The mixture was then loaded onto a 20 ml column of Superose 6 Prep gel filtration media, and washed with running buffer (20 mM Tris, pH 7.4, 150 mM NaCl, 0.05% maltoside/0.01% CHS), to remove any unbound perylene. A total of 60 separate, 0.5 ml fractions were collected. A portion of each fraction was loaded into 60 wells of a 96 well plate, and fluorescence was measured at an excitation of 485 nm, and emission of 535 nm. Since the fluorescence quantum yield of perylene bound to receptor differs from that of unbound perylene, fluorescence was also measured after dissociating receptor-perylene complexes by adding imidazole to a final concentration of 0.5M to each of the fractions. A portion of each column fraction was loaded onto denaturing polyacrylamide gel, separated by electrophoreses, transferred to PVDF membranes, and receptor protein containing fractions were identified, using anti-MBP antibodies.

[2] = molecular target: T1, serotonin receptor 5HT2C with a C-terminal His tag (Rattus norvegicus, UniProt P08909); experiment: immunoprecipitation binding assay (anti-MBP, protein A beads, imidazole elution, fluorescence); conditions: receptor 0.2 μM, perylene 0.4 μM, overnight at 4° C.; FIGS. 5-7
T1 construct: made in house; host or cells: bacteria (E. coli is named as the preferred host for the MBP system)
T1 sequence (P08909 with tags, fused parts or gaps): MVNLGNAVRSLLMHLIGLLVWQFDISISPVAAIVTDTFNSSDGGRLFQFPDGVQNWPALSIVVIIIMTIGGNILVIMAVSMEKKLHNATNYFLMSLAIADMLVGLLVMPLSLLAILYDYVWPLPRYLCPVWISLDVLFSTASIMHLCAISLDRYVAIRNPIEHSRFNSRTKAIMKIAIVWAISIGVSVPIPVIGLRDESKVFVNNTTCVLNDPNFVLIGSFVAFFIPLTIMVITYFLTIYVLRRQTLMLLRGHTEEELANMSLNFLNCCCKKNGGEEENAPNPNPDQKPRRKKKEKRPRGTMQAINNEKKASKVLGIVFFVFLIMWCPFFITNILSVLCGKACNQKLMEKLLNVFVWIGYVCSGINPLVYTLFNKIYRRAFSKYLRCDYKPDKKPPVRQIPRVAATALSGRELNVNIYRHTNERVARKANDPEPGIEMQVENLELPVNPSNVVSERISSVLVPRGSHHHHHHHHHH
Procedure: In these experiments, the affinity purified receptor (0.2 μM), and either compound 1, or control glycine-perylene (0.4 μM), were combined, in a total volume of 0.1 ml, and incubated on a rocking platform overnight, at 4° C. Further controls were provided, by taking samples of the two perylene molecules and treating them in the absence of protein.
All washes were retained for fluorescence measurements.
Perylene molecules were eluted from the bead bound proteins using 0.5M imidazole. Fluorescence of all samples and washes was measured, using a spectrofluorometer, excitation at 480 nm, and emission scan at 500-650 nm. Peak fluorescence was detected at 533-535 nm.

CCCCCCC(CCCCCC)N1C(=O)c2ccc3c4ccc5c6c(ccc(c7ccc(c2c37)C1=O)c64)C(=O)N(CCCCC(C(=O)[O-])N(CC(=O)[O-])CC(=O)O)C5=O.[Ni+2] (centres unmarked) [compound 1, N-(1-hexylheptyl)-N′-(nickel (II)-5-(1-carboxyl-1-(N-dicarboxylmethyl)pentyl))perylene-3,4,9,10-tetracarboxylic-diimide]
portion of the total perylene bound to receptor protein [1]: roughly one-third
binding to the receptor (fluorescence following overnight elution with 0.5M imidazole) [2]: bound to the receptor and required elution
